# Test results taken from patent US6849645B2, “Method of increased bioavailability of nutrients and pharmaceutical preparations with tetrahydropiperine and its analogues and derivatives” (priority 2000, dated 2005).
# “Also recorded” adds a separate entry of the source.
# Legend:
# [1] = Solubility (specification of THP); assay type: physicochemical
# [2] = Primary skin irritation potential, Draize's method; assay type: in vivo, New Zealand White rabbits
# Method: The study was designed to determine the primary skin irritation potential on New Zealand White rabbits following the guidelines provided by Gaitonde Committee, CIB, New Delhi, India
# New Zealand White, healthy, adult male and female rabbits, each group comprising of 3 randomly selected animals of each sex.
# 0.5 ml of the test substance was applied to dehaired intact and abraded skin sites of each test animal. Care was taken to note that the abrasions penetrated the Stratum corneum, but not the dermis. A gauze patch was secured over each treated area using tape. The patch and unabsorbed test substance were removed after 24 hours. Each site of application was carefully observed and the reaction evaluated according to Draize's method at 24 and 72 hours.
# [3] = system: tobacco cut worm, Spodoptera litura F.; experiment: whole plant or invertebrate; conditions: 48 hours
# Method: The tetrahydropiperine was tested against tobacco cut worm, Spodoptera litura F. to determine its possible increased kill rate when used with Fenvalerate—a synthetic pyrethroid.
# • a. Preparation of test solution—0.5 g of the test product was dissolved in 1 ml of Ethanol and made up to 100 ml in standard volumetric flask using suitable emulsifier. This solution contains 5000 ppm a.i. (0.5 percent). Further, serial dilution was made to get 0.25, 0.125 and 0.0625% of the test product. To each of these test solutions, Fenvalerate was added to get 250 ppm of Fenvalerate a.i. in the final volume. For comparison 0.5 percent of Tetrahydropiperine, Ethanol 1.0 percent solution and 250 ppm a.i. of Fenvalerate was used. • b. Bioassay—Laboratory reared 7 day old larvae of tobacco cut worm, Spodoptera litura were used in the experiment. After a series of preliminary tests the concentrations chosen for the experiment were 0.5, 0.25, 0.125 and 0.0625 percent tetrahydropiperine. Fresh castor leaves were dipped for 30 seconds in above concentrations of test and standard compounds and blank solutions. After proper drying, the treated leaves were transferred to plastic containers. To each container 5 larvae were released. This was repeated four times so as to have 20 larvae for each concentration. Larvae in control set were fed with leaves dipped in water. Observations were recorded for larval mortality after 48 hours of exposure. Results
structure (smiles),measurement,setting,value
"O=C(CCCCc1ccc2c(c1)OCO2)N1CCCCC1 [Tetrahydropiperine, 1-[5-(1,3-Benzodioxol-5 yl)-1-oxo-pentanoyl]-Piperidine]",Solubility,[1]; chloroform,Soluble
same,Solubility,[1]; methanol,Soluble
same,Solubility,[1]; water,insoluble
same,"skin reaction (erythema, edema, irritation)","[2]; 0.5 ml on intact and abraded skin sites, patch 24 hours, evaluated at 24 and 72 hours",No erythema or edema; also recorded: did not cause any irritation
same,primary skin irritation score,"[2]; intact and abraded skin, Draize's method, 24 and 72 hours",zero
same,PERCENT MORTALITY (Mean of 4 replications),[3]; Tetrahydropiperine 0.0625% + 250 ppm a.i. Fenvalerate,50%
same,PERCENT MORTALITY (Mean of 4 replications),"[3]; Tetrahydropiperine 0.0625% + 250 ppm a.i. Fenvalerate, listed as tetrahydropiperine",did not enhance the activity
same,PERCENT MORTALITY (Mean of 4 replications),[3]; Tetrahydropiperine 0.125% + 250 ppm a.i. Fenvalerate,65%
same,PERCENT MORTALITY (Mean of 4 replications),[3]; Tetrahydropiperine 0.5% + 250 ppm a.i. Fenvalerate,100%
same,PERCENT MORTALITY (Mean of 4 replications),[3]; Tetrahydropiperine 0.5% alone,0%
same,PERCENT MORTALITY (Mean of 4 replications),"[3]; Tetrahydropiperine 0.5% alone, listed as tetrahydropiperine",did not show any activity
same,PERCENT MORTALITY (Mean of 4 replications),[3]; Tetrahydropiperine […] + 250 ppm a.i. Fenvalerate,85%
